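Exposure lasted 48 hours, with cells grown in 96-well plates and compounds tested at five concentrations. TGI: concentration producing complete growth inhibition.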
Columns and labels:
Test in all cases: inhibition of tumour cell growth, NCI panel, 48 h
786-0 renal = test system: 786-0 renal
A498 renal = test system: A498 renal
A549 NSCLC = test system: A549 NSCLC
ACHN renal = test system: ACHN renal
BT-549 breast = test system: BT-549 breast
CAKI-1 renal = test system: CAKI-1 renal
CCRF-CEM leukemia = test system: CCRF-CEM leukemia
COLO 205 colon = test system: COLO 205 colon
DU-145 prostate = test system: DU-145 prostate
EKVX NSCLC = test system: EKVX NSCLC
HCC-2998 colon = test system: HCC-2998 colon
HCT-116 colon = test system: HCT-116 colon
HCT-15 colon = test system: HCT-15 colon
HL-60(TB) leukemia = test system: HL-60(TB) leukemia
HOP-62 NSCLC = test system: HOP-62 NSCLC
HOP-92 NSCLC = test system: HOP-92 NSCLC
HS 578T breast = test system: HS 578T breast
HT29 colon = test system: HT29 colon
IGROV1 ovarian = test system: IGROV1 ovarian
K-562 leukemia = test system: K-562 leukemia
KM12 colon = test system: KM12 colon
LOX IMVI melanoma = test system: LOX IMVI melanoma
M14 melanoma = test system: M14 melanoma
MALME-3M melanoma = test system: MALME-3M melanoma
MDA-MB-231 breast = test system: MDA-MB-231 breast
MDA-MB-435 = test system: MDA-MB-435
MDA-N = test system: MDA-N
MOLT-4 leukemia = test system: MOLT-4 leukemia
NCI-H226 lung = test system: NCI-H226 lung
NCI-H23 lung = test system: NCI-H23 lung
NCI-H460 lung = test system: NCI-H460 lung
NCI-H522 lung = test system: NCI-H522 lung
NCI/ADR-RES ovarian = test system: NCI/ADR-RES ovarian
OVCAR-5 ovarian = test system: OVCAR-5 ovarian
OVCAR-8 ovarian = test system: OVCAR-8 ovarian
PC-3 prostate = test system: PC-3 prostate
RPMI-8226 leukemia = test system: RPMI-8226 leukemia
SF-268 CNS = test system: SF-268 CNS
SF-295 CNS = test system: SF-295 CNS
SF-539 CNS = test system: SF-539 CNS
SK-MEL-2 melanoma = test system: SK-MEL-2 melanoma
SK-MEL-28 melanoma = test system: SK-MEL-28 melanoma
SK-MEL-5 melanoma = test system: SK-MEL-5 melanoma
SK-OV-3 ovarian = test system: SK-OV-3 ovarian
SN12C renal = test system: SN12C renal
SNB-19 CNS = test system: SNB-19 CNS
SNB-75 CNS = test system: SNB-75 CNS
SR leukemia = test system: SR leukemia
SW-620 colon = test system: SW-620 colon
T-47D breast = test system: T-47D breast
TK-10 renal = test system: TK-10 renal
U251 CNS = test system: U251 CNS
UACC-257 melanoma = test system: UACC-257 melanoma
UACC-62 melanoma = test system: UACC-62 melanoma
UO-31 renal = test system: UO-31 renal

Question: For `C=C1CC(Cn2cc(C)c(=O)[nH]c2=O)(c2ccc(Cl)cc2)OC1=O` (stereo not given), which TGI (786-0 renal) is on record?
Answer: Its TGI is 2990 nM.

Question: What about the TGI (A498 renal) of the same molecule?
Answer: The TGI was 22.8 µM.

Question: What about the TGI (A549 NSCLC) of the same molecule?
Answer: Its TGI is 32.2 µM.

Question: And the TGI (ACHN renal)?
Answer: The TGI was 8 µM.

Question: And the TGI (BT-549 breast)?
Answer: Its TGI is 2860 nM.

Question: What about the TGI (CAKI-1 renal) of the same molecule?
Answer: The TGI was 3.93 µM.

Question: What about the TGI (CCRF-CEM leukemia) of the same molecule?
Answer: The TGI was 4.01 µM.

Question: And the TGI (COLO 205 colon)?
Answer: The TGI was 2960 nM.

Question: And the TGI (DU-145 prostate)?
Answer: Its TGI is 18.3 µM.

Question: What about the TGI (EKVX NSCLC) of the same molecule?
Answer: The TGI was 18.7 µM.

Question: What about the TGI (HCC-2998 colon) of the same molecule?
Answer: Its TGI is 8.43 µM.

Question: What about the TGI (HCT-116 colon) of the same molecule?
Answer: The TGI was 3.29 µM.

Question: What about the TGI (HCT-15 colon) of the same molecule?
Answer: Its TGI is 2370 nM.

Question: What about the TGI (HL-60(TB) leukemia) of the same molecule?
Answer: The TGI was 3.93 µM.

Question: What about the TGI (HOP-62 NSCLC) of the same molecule?
Answer: Its TGI is 33 µM.

Question: And the TGI (HOP-92 NSCLC)?
Answer: The TGI was 1580 nM.

Question: And the TGI (HS 578T breast)?
Answer: The TGI was 25.5 µM.

Question: What about the TGI (HT29 colon) of the same molecule?
Answer: Its TGI is 3.64 µM.

Question: What about the TGI (IGROV1 ovarian) of the same molecule?
Answer: Its TGI is 3.41 µM.

Question: What about the TGI (K-562 leukemia) of the same molecule?
Answer: The TGI was 21.1 µM.

Question: What about the TGI (KM12 colon) of the same molecule?
Answer: The TGI was over 43 µM.

Question: And the TGI (LOX IMVI melanoma)?
Answer: Its TGI is 3.2 µM.

Question: And the TGI (M14 melanoma)?
Answer: The TGI was 2540 nM.

Question: What about the TGI (MALME-3M melanoma) of the same molecule?
Answer: Its TGI is 4.89 µM.

Question: What about the TGI (MDA-MB-231 breast) of the same molecule?
Answer: Its TGI is 9.82 µM.

Question: And the TGI (MDA-MB-435)?
Answer: The TGI was 15.1 µM.

Question: And the TGI (MDA-N)?
Answer: Its TGI is 11.6 µM.

Question: And the TGI (MOLT-4 leukemia)?
Answer: The TGI was 3.87 µM.

Question: And the TGI (NCI-H226 lung)?
Answer: The TGI was 30.6 µM.

Question: What about the TGI (NCI-H23 lung) of the same molecule?
Answer: Its TGI is 10.4 µM.

Question: What about the TGI (NCI-H460 lung) of the same molecule?
Answer: Its TGI is 36.1 µM.

Question: What about the TGI (NCI-H522 lung) of the same molecule?
Answer: The TGI was 1350 nM.

Question: What about the TGI (NCI/ADR-RES ovarian) of the same molecule?
Answer: The TGI was 17.9 µM.

Question: What about the TGI (OVCAR-5 ovarian) of the same molecule?
Answer: The TGI was 29.4 µM.

Question: And the TGI (OVCAR-8 ovarian)?
Answer: Its TGI is 15.4 µM.

Question: What about the TGI (PC-3 prostate) of the same molecule?
Answer: Its TGI is 12.5 µM.

Question: And the TGI (RPMI-8226 leukemia)?
Answer: The TGI was 1950 nM.

Question: And the TGI (SF-268 CNS)?
Answer: Its TGI is 42.1 µM.

Question: And the TGI (SF-295 CNS)?
Answer: Its TGI is over 34 µM.

Question: What about the TGI (SF-539 CNS) of the same molecule?
Answer: Its TGI is 26 µM.

Question: What about the TGI (SK-MEL-2 melanoma) of the same molecule?
Answer: The TGI was 5.48 µM.

Question: What about the TGI (SK-MEL-28 melanoma) of the same molecule?
Answer: The TGI was 4.44 µM.

Question: What about the TGI (SK-MEL-5 melanoma) of the same molecule?
Answer: The TGI was 6.43 µM.

Question: And the TGI (SK-OV-3 ovarian)?
Answer: The TGI was 28.1 µM.

Question: What about the TGI (SN12C renal) of the same molecule?
Answer: The TGI was 21.2 µM.

Question: What about the TGI (SNB-19 CNS) of the same molecule?
Answer: Its TGI is over 55.5 µM.

Question: What about the TGI (SNB-75 CNS) of the same molecule?
Answer: The TGI was 15.4 µM.

Question: And the TGI (SR leukemia)?
Answer: Its TGI is 8.97 µM.

Question: And the TGI (SW-620 colon)?
Answer: Its TGI is 3.38 µM.

Question: And the TGI (T-47D breast)?
Answer: Its TGI is 5.19 µM.

Question: What about the TGI (TK-10 renal) of the same molecule?
Answer: The TGI was 3.61 µM.

Question: And the TGI (U251 CNS)?
Answer: The TGI was 30 µM.

Question: And the TGI (UACC-257 melanoma)?
Answer: Its TGI is 3.75 µM.

Question: And the TGI (UACC-62 melanoma)?
Answer: Its TGI is 7.48 µM.

Question: What about the TGI (UO-31 renal) of the same molecule?
Answer: The TGI was 25.9 µM.
